Test: molar heat capacity at constant pressure
Settings: 101.33 kPa, DSC

O=[N+]([O-])[O-].O=[N+]([O-])[O-].[Ca+2] [calcium nitrate]
Settings | molar heat capacity at constant pressure [J/K/mol]
140.18 K, Crystal 2 | 107.65
141.18 K, Crystal 2 | 107.79
142.18 K, Crystal 2 | 107.93
143.18 K, Crystal 2 | 108.08
144.18 K, Crystal 2 | 108.26
145.18 K, Crystal 2 | 108.53
146.18 K, Crystal 2 | 108.77
147.18 K, Crystal 2 | 109.04
148.18 K, Crystal 2 | 109.41
149.18 K, Crystal 2 | 109.53
150.18 K, Crystal 2 | 109.66
151.18 K, Crystal 2 | 110.04
152.18 K, Crystal 2 | 110.2
153.18 K, Crystal 2 | 110.55
154.18 K, Crystal 2 | 110.68
155.18 K, Crystal 2 | 111.12
156.18 K, Crystal 2 | 111.45
157.18 K, Crystal 2 | 111.69
158.18 K, Crystal 2 | 111.99
159.18 K, Crystal 2 | 112.21
160.18 K, Crystal 2 | 112.56
161.18 K, Crystal 2 | 112.86
162.18 K, Crystal 2 | 113.24
163.18 K, Crystal 2 | 113.35
164.18 K, Crystal 2 | 113.45
165.18 K, Crystal 2 | 113.94
166.18 K, Crystal 2 | 114.12
167.18 K, Crystal 2 | 114.45
168.18 K, Crystal 2 | 114.73
169.18 K, Crystal 2 | 114.98
170.18 K, Crystal 2 | 115.36
171.18 K, Crystal 2 | 115.66
172.18 K, Crystal 2 | 116.1
173.18 K, Crystal 2 | 116.37
174.18 K, Crystal 2 | 116.66
175.18 K, Crystal 2 | 117.01
176.18 K, Crystal 2 | 117.33
177.18 K, Crystal 2 | 117.64
178.18 K, Crystal 2 | 117.92
179.18 K, Crystal 2 | 118.12
180.18 K, Crystal 2 | 118.62
181.18 K, Crystal 2 | 118.7
182.18 K, Crystal 2 | 119.16
183.18 K, Crystal 2 | 119.36
184.18 K, Crystal 2 | 119.66
185.18 K, Crystal 2 | 119.91
186.18 K, Crystal 2 | 120.23
187.18 K, Crystal 2 | 120.54
188.18 K, Crystal 2 | 120.8
189.18 K, Crystal 2 | 121.2
190.18 K, Crystal 2 | 121.32
191.18 K, Crystal 2 | 121.79
192.18 K, Crystal 2 | 122.02
193.18 K, Crystal 2 | 122.2
194.18 K, Crystal 2 | 122.58
195.18 K, Crystal 2 | 122.7
196.18 K, Crystal 2 | 123.1
197.18 K, Crystal 2 | 123.28
198.18 K, Crystal 2 | 123.48
199.18 K, Crystal 2 | 123.86
200.18 K, Crystal 2 | 123.94
201.18 K, Crystal 2 | 124.39
202.18 K, Crystal 2 | 124.62
203.18 K, Crystal 2 | 124.88
204.18 K, Crystal 2 | 125.24
205.18 K, Crystal 2 | 125.55
206.18 K, Crystal 2 | 125.8
207.18 K, Crystal 2 | 126.11
208.18 K, Crystal 2 | 126.43
209.18 K, Crystal 2 | 126.73
210.18 K, Crystal 2 | 126.95
211.18 K, Crystal 2 | 127.36
212.18 K, Crystal 2 | 127.6
213.18 K, Crystal 2 | 127.82
214.18 K, Crystal 2 | 128.19
215.18 K, Crystal 2 | 128.55
216.18 K, Crystal 2 | 128.82
217.18 K, Crystal 2 | 129.14
218.18 K, Crystal 2 | 129.41
219.18 K, Crystal 2 | 129.69
220.18 K, Crystal 2 | 129.91
221.18 K, Crystal 2 | 130.24
222.18 K, Crystal 2 | 130.55
223.18 K, Crystal 2 | 130.83
224.18 K, Crystal 2 | 131.03
225.18 K, Crystal 2 | 131.19
226.18 K, Crystal 2 | 131.52
227.18 K, Crystal 2 | 131.78
228.18 K, Crystal 2 | 132.06
229.18 K, Crystal 2 | 132.35
230.18 K, Crystal 2 | 132.6
231.18 K, Crystal 2 | 132.91
232.18 K, Crystal 2 | 133.16
233.18 K, Crystal 2 | 133.4
234.18 K, Crystal 2 | 133.66
235.18 K, Crystal 2 | 134.04
236.18 K, Crystal 2 | 134.28
237.18 K, Crystal 2 | 134.56
238.18 K, Crystal 2 | 134.67
239.18 K, Crystal 2 | 134.73
240.18 K, Crystal 2 | 134.88
241.18 K, Crystal 2 | 134.93
242.18 K, Crystal 2 | 135.27
243.18 K, Crystal 2 | 135.75
244.18 K, Crystal 2 | 136.33
245.18 K, Crystal 2 | 136.84
246.18 K, Crystal 2 | 137.21
247.18 K, Crystal 2 | 137.52
248.18 K, Crystal 2 | 137.79
249.18 K, Crystal 2 | 138.02
250.18 K, Crystal 2 | 138.35
251.18 K, Crystal 2 | 138.62
252.18 K, Crystal 2 | 138.99
253.18 K, Crystal 2 | 139.21
254.18 K, Crystal 2 | 139.61
255.18 K, Crystal 2 | 139.92
256.18 K, Crystal 2 | 140.17
257.18 K, Crystal 2 | 140.52
258.18 K, Crystal 2 | 140.74
259.18 K, Crystal 2 | 140.96
260.18 K, Crystal 2 | 141.24
261.18 K, Crystal 2 | 141.46
262.18 K, Crystal 2 | 141.71
263.18 K, Crystal 2 | 141.92
264.18 K, Crystal 2 | 142.15
265.18 K, Crystal 2 | 142.33
266.18 K, Crystal 2 | 142.65
267.18 K, Crystal 2 | 142.87
268.18 K, Crystal 2 | 143.14
269.18 K, Crystal 2 | 143.48
270.18 K, Crystal 2 | 143.75
271.18 K, Crystal 2 | 144.11
272.18 K, Crystal 2 | 144.39
273.18 K, Crystal 2 | 144.69
274.18 K, Crystal 2 | 145.05
275.18 K, Crystal 2 | 145.33
276.18 K, Crystal 2 | 145.65
277.18 K, Crystal 2 | 145.91
278.18 K, Crystal 2 | 146.15
279.18 K, Crystal 2 | 146.49
280.18 K, Crystal 2 | 146.74
281.18 K, Crystal 2 | 147.05
282.18 K, Crystal 2 | 147.32
283.18 K, Crystal 2 | 147.62
284.18 K, Crystal 2 | 148.05
285.18 K, Crystal 2 | 148.47
286.18 K, Crystal 2 | 149.01
287.18 K, Crystal 2 | 149.55
288.18 K, Crystal 2 | 150.15
289.18 K, Crystal 2 | 150.77
290.18 K, Crystal 1 | 151.37
291.18 K, Crystal 1 | 151.12
292.18 K, Crystal 1 | 150.21
293.18 K, Crystal 1 | 149.35
294.18 K, Crystal 1 | 148.69
295.18 K, Crystal 1 | 148.17
296.18 K, Crystal 1 | 147.88
297.18 K, Crystal 1 | 147.79
298.18 K, Crystal 1 | 147.74
299.18 K, Crystal 1 | 147.76
300.18 K, Crystal 1 | 147.88
301.18 K, Crystal 1 | 148.08
302.18 K, Crystal 1 | 148.34
303.18 K, Crystal 1 | 148.7
304.18 K, Crystal 1 | 149.02
305.18 K, Crystal 1 | 149.46
306.18 K, Crystal 1 | 149.88
307.18 K, Crystal 1 | 150.3
308.18 K, Crystal 1 | 150.74
309.18 K, Crystal 1 | 151.11
310.18 K, Crystal 1 | 151.52
311.18 K, Crystal 1 | 151.89
312.18 K, Crystal 1 | 152.28
313.18 K, Crystal 1 | 152.66
314.18 K, Crystal 1 | 153.07
315.18 K, Crystal 1 | 153.52
316.18 K, Crystal 1 | 153.88
317.18 K, Crystal 1 | 154.27
318.18 K, Crystal 1 | 154.64
319.18 K, Crystal 1 | 154.97
320.18 K, Crystal 1 | 155.32
321.18 K, Crystal 1 | 155.55
322.18 K, Crystal 1 | 155.81
323.18 K, Crystal 1 | 155.97
324.18 K, Crystal 1 | 156.09
325.18 K, Crystal 1 | 156.21
326.18 K, Crystal 1 | 156.25
327.18 K, Crystal 1 | 156.31
328.18 K, Crystal 1 | 156.31
328.78 K, Crystal 1 | 142.63
329.18 K, Crystal 1 | 156.34
329.78 K, Crystal 1 | 143.76
330.18 K, Crystal 1 | 156.4
330.78 K, Crystal 1 | 144.52
331.18 K, Crystal 1 | 156.44
331.78 K, Crystal 1 | 145.04
332.18 K, Crystal 1 | 156.55
332.78 K, Crystal 1 | 145.41
333.18 K, Crystal 1 | 156.64
333.78 K, Crystal 1 | 145.78
334.18 K, Crystal 1 | 156.71
334.78 K, Crystal 1 | 146.14
335.18 K, Crystal 1 | 156.85
335.78 K, Crystal 1 | 146.49
336.18 K, Crystal 1 | 156.94
336.78 K, Crystal 1 | 146.84
337.18 K, Crystal 1 | 157.08
337.78 K, Crystal 1 | 147.18
338.18 K, Crystal 1 | 157.1
338.78 K, Crystal 1 | 147.5
339.18 K, Crystal 1 | 157.13
339.78 K, Crystal 1 | 147.78
340.18 K, Crystal 1 | 157.13
340.78 K, Crystal 1 | 148.04
341.18 K, Crystal 1 | 157.22
341.78 K, Crystal 1 | 148.31
342.18 K, Crystal 1 | 157.26
342.78 K, Crystal 1 | 148.58
343.18 K, Crystal 1 | 157.38
343.78 K, Crystal 1 | 148.83
344.18 K, Crystal 1 | 157.49
344.78 K, Crystal 1 | 149.08
345.18 K, Crystal 1 | 157.55
345.78 K, Crystal 1 | 149.33
346.18 K, Crystal 1 | 157.7
346.78 K, Crystal 1 | 149.56
347.18 K, Crystal 1 | 157.84
347.78 K, Crystal 1 | 149.77
348.18 K, Crystal 1 | 158
348.78 K, Crystal 1 | 149.98
349.18 K, Crystal 1 | 158.16
349.78 K, Crystal 1 | 150.2
350.18 K, Crystal 1 | 158.3
350.78 K, Crystal 1 | 150.42
351.18 K, Crystal 1 | 158.39
351.78 K, Crystal 1 | 150.66
352.18 K, Crystal 1 | 158.48
352.78 K, Crystal 1 | 150.89
353.18 K, Crystal 1 | 158.58
353.78 K, Crystal 1 | 151.12
354.18 K, Crystal 1 | 158.8
354.78 K, Crystal 1 | 151.32
355.18 K, Crystal 1 | 158.94
355.78 K, Crystal 1 | 151.51
356.18 K, Crystal 1 | 159.08
356.78 K, Crystal 1 | 151.68
357.18 K, Crystal 1 | 159.2
357.78 K, Crystal 1 | 151.85
358.18 K, Crystal 1 | 159.38
358.78 K, Crystal 1 | 152.01
359.18 K, Crystal 1 | 159.61
359.78 K, Crystal 1 | 152.18
360.18 K, Crystal 1 | 159.81
360.78 K, Crystal 1 | 152.37
361.18 K, Crystal 1 | 160.09

— the NIST ThermoML archive (doi:10.1016/j.jct.2019.03.007)
